Read-outs that look alike come from different tables or passages of the source.
Legend:
A549 cells [1] = assay: Apoptosis by flow cytometry (Annexin V-FITC/PI), A549; format: cell-based, human; conditions: A549, 48 h, various concentrations, relative to control
Protocol: (§1) After being digested with trypsin without EDTA, the cells were washed gently with culture medium and twice with cold PBS. The pellet was resuspended in 400 μl of 1× binding buffer, the resuspended cells were transferred to flow tubes, then Annexin V-FITC (5 μl) and propidium iodide (10 μl) were added, and the mixture was incubated for 15 min at room temperature in the dark. The percentage of apoptotic cells was determined by flow cytometry (Backman, CA, USA) and FlowJo V10 software.

PC-9/GR cells = assay: Apoptosis by flow cytometry (Annexin V-FITC/PI), PC-9/GR; format: cell-based, human; conditions: low-dose BH (4, 8 μM), gefitinib 25 μM, alone or combined
Protocol: as §1

A549 cells [2] = assay: Transwell migration and Matrigel invasion assays; format: cell-based, human; conditions: dose-dependent, 12 h treatment
Protocol: The Transwell insert in a 24-well plate (8 μm, Corning, NY, USA) was taken out, and a 600-μl medium containing 10% FBS was added to the bottom chamber. The A549 cells were resuspended with 10% FBS culture medium, and the diluted cell suspension (3 × 10^5/300 μl) was cultured in the top chamber and then incubated with or without Matrigel (BD BioCoat). After 12 h, the medium in the top chamber was changed to RPMI-1640 without FBS, and BD or BH with different concentrations was added ([31]). After an additional 12 h, the cells that migrated or invaded the bottom side of the polycarbonate film were fixed with methanol for 30 min and then stained for 15 min with 0.1% crystal violet (Solarbio), after which their number was assessed under a microscope (×4, Nikon).

LO2 cells = assay: Toxicity to normal human cell line LO2 (Figure S1); format: cell-based
Protocol: (§2) Figure S1. The toxicity of Bruceine H (BH) and Bruceine D (BD) to 16HBE (A) and LO2 (B) cells was evaluated.

16HBE cells = assay: Toxicity to normal human cell line 16HBE (Figure S1); format: cell-based
Protocol: as §2

A549 cells [3] = assay: cells; format: cell-based, human; conditions: Homo sapiens
Protocol: (§3) The human NSCLC cell lines (A549, PC-9, and PC-9/GR) and other cell lines (16HBE and LO2) were purchased from the American Type Culture Collection (ATCC, Manassas, VA, USA). […] All cell lines were cultivated at 37°C under 5% CO2.
(§4) The Cell Counting Kit-8 assays (Beyotime, Shanghai, China) were performed to assess cell viability. […] Microplate readers (Infinite F500, Tecan, Mannedorf, Switzerland) were used to measure the absorbance (A) at 450 nm. All samples were assessed in triplicate.

PC-9 cells = assay: cells; format: cell-based, human; conditions: Homo sapiens
Protocol: as §3, §4

Which early apoptosis rate (A549 cells [1]) does the source give for `CC1=CC(=O)[C@@H](O)[C@]2(C)[C@H]3[C@@H](O)[C@H](O)[C@@]4(CO)OC[C@@]35[C@@H](C[C@@H]12)OC(=O)[C@H](O)[C@]54O` [BH, Bruceine H] here?
Its early apoptosis rate is “increased”.

And the “apoptosis of PC-9/GR cells” value (PC-9/GR cells)?
The value was “little effects”.

What about the “Transwell migration and invasion of A549” value (A549 cells [2]) of the same compound?
Its value is “significant anti-invasive and antimigratory actions”.

What about the “toxicity to LO2 cells” value (LO2 cells) of the same compound?
Its value is “no apparent toxicity”.

What about the “toxicity to 16HBE cells” value (16HBE cells) of the same compound?
Its value is “no apparent toxicity”.

What about the IC50 (A549 cells [3]; A549, 24 h, Figure 2A, read-out: IC50 (24h)) of the same compound?
Its IC50 is 44.4 µM.

What about the IC50 (A549 cells [3]; A549, 48 h, read-out: IC50 (48 h)) of the same compound?
The IC50 was 25.5 µM.

What about the IC50 (PC-9 cells; PC-9, 24 h, Figure 2A, read-out: IC50 (24h)) of the same compound?
Its IC50 is 55.4 µM.

And the IC50 (PC-9 cells; PC-9, 48 h, read-out: IC50)?
The IC50 was 12.6 µM.

From PMC9024338, “Bruceine H Mediates EGFR-TKI Drug Persistence in NSCLC by Notch3-Dependent β-Catenin Activating FOXO3a Signaling” (Frontiers in Oncology, 2022)
